Reference: patent US11053226B2, “KRAS G12C inhibitors and methods of using the same” (Amgen Inc., priority 2018, dated 2021)
pIC50: −log10 of the molar value. Where two headings read alike, the source gives them in different places.

Columns and labels:
[1] = test system: Phosphorylation of ERK1/2 in MIA PaCa-2 cells; experiment: Phospho-ERK1/2 MSD Assay; assay type: cell-based; details: MiaPaCa-2 cells
Procedure: (§1) For compounds in Table 9, the following assay conditions were employed:
Phospho-ERK1/2 MSD Assay:
Sixteen hours prior to compound treatment, MIA PaCa-2 cells were seeded in 96-well cell culture plates at a density of 25,000 cells/well and incubated at 37° C., 5% CO2. […] Following compound treatment, cells were stimulated with 10 ng/mL EGF (Roche 11376454001) for 10 min, washed with ice-cold Dulbecco's phosphate-buffered saline, no Ca^2+ or Mg^2+ (ThermoFisher Scientific 14190144), and then lysed in RIPA buffer (50 mM Tris-HCl pH 7.5, 1% Igepal, 0.5% sodium deoxycholate, 150 mM NaCl, and 0.5% sodium dodecyl sulfate) containing protease inhibitors (Roche 4693132001) and phosphatase inhibitors (Roche 4906837001). […] Assay plates were read on a Meso Scale Discovery Sector Imager 6000, and data were analyzed using a 4-parameter logistic model to calculate IC50 values.

[2] = test system: Phosphorylation of ERK1/2 in A549 cells; experiment: Phospho-ERK1/2 MSD Assay (A549); assay type: cell-based
[3] = target: GDP-bound KRAS protein (aa 1-169), containing both G12C and C118A amino acid substitutions (Homo sapiens (Human), UniProt P01116, C118A/G12C); experiment: Coupled Nucleotide Exchange Assay; assay type: biochemical; details: read-out: Coupled Exchange IC50 (2 h); 2 h compound pre-incubation
Procedure: as §1
Coupled Nucleotide Exchange Assay:
The assay plates were then read on a PerkinElmer EnVision Multilabel Reader, using AlphaScreen® technology, and data were analyzed using a 4-parameter logistic model to calculate IC50 values.

[4] = Homo sapiens, MIA PaCa-2, 4 h, read-out: pERK IC50 (4 h, MiaPaCa-2), 4 h compound treatment
[5] = Homo sapiens, A549, 4 h, read-out: pERK IC50 (4 h, A549), 4 h compound treatment
[6] = read-out: pERK IC50 (4 h, A549), 4 h compound treatment

GDP-bound KRAS protein (aa 1-169), containing both G12C and C118A amino acid substitutions, sequence (P01116 other isoform, or with tags, fused parts or gaps G12C/C118A): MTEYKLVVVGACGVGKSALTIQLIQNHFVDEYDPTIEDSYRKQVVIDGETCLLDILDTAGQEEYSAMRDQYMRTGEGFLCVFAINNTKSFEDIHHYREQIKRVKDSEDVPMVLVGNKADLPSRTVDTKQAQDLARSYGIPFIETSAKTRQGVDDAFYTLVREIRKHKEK

SMILES	pIC50 [1, 4]	pIC50 [2, 5]	further results
C=CC(=O)N1CC(NC(=O)Cn2c(C)c(C(=O)N3C(C)COCC3C)c3cc(Br)cc(C)c32)C1 (stereo not shown) [Example 26]	5.61	< 4.48	–
C=CC(=O)N1CC(NC(=O)Cn2c(C3CC3)c(C(=O)N3CCC(C)(C)C3)c3cc(Cl)cc(C)c32)C1 [Example 20]	5.71	< 4.00	–
C=CC(=O)N1CC(N(C)C(=O)Cn2cc(C(=O)N3CCc4c(ccnc4OC)C3)c3c(Cl)c(Cl)ccc32)C1 [Example 7]	5.88	–	pIC50 [3]: 6.35
C=CC(=O)N1CC(NC(=O)Cn2c(C)c(C(=O)N3CCN(c4ccc(C#N)cn4)C[C@H]3C)c3cc(Br)ccc32)C1 [Example 16]	5.75	< 4.00	–
C=CC(=O)N1CC(NC(=O)Cn2cc(C(=O)N3CCc4c(ccc(Cl)c4Cl)C3)c3cc(Br)ccc32)C1 [Example 96]	4.76	4.52	–
C=CC(=O)N1CC(NC(=O)Cn2cc(C(=O)NCCc3nc4c(s3)CCCC4)c3cc(Br)ccc32)C1 [Example 171]	< 4.00	< 4.00	–
C=CC(=O)N1CC(NC(=O)Cn2cc(C(=O)N3CCN(c4cccc(C)n4)CC3)c3cc(Br)ccc32)C1 [Example 48]	5.34	< 4.48	–
C=CC(=O)N1CC(NC(=O)Cn2c(C)c(C(=O)N3CCN(c4ccc(C)cn4)CC3)c3cc(Br)ccc32)C1 [Example 29]	5.58	< 4.00	–
C=CC(=O)N1CC(NC(=O)Cn2cc(C(=O)N3CCN(c4ccc([N+](=O)[O-])cc4)CC3)c3cc(Br)ccc32)C1 [Example 166]	< 4.00	< 4.00	–
C=CC(=O)N1CC(NC(=O)Cn2cc(C(=O)NCC(c3sccc3C)N(C)C)c3cc(Br)ccc32)C1 (stereo not shown) [Example 127]	4.46	< 4.00	–
C=CC(=O)N1CC(NC(=O)Cn2cc(C(=O)NCCOc3c(C)cccc3C)c3cc(Br)ccc32)C1 [Example 68]	5.06	< 4.00	–
C=CC(=O)N1CC(N(CC)C(=O)Cn2c(C)c(C(=O)N3CCc4ccccc4C3C)c3cc(Br)cc(C)c32)C1 (stereo not shown) [Example 72]	4.97	4.20	–
C=CC(=O)N1CC(NC(=O)Cn2c(C)c(C(=O)N3CCc4ncccc4C3)c3cc(Br)ccc32)C1 [Example 116]	4.55	< 4.00	–
C=CC(=O)N1CC(NC(=O)Cn2cc(C(=O)N3CCc4c(Br)cc(C)cc4C3)c3cc(Br)ccc32)C1 [Example 120]	4.51	4.55	–
C=CC(=O)N1CC(NC(=O)Cn2cc(C(=O)N3CCc4c(ccnc4OC)C3)c3cc(Br)ccc32)C1 [Example 89]	4.83	< 4.00	–
C=CC(=O)N1CC(NC(=O)Cn2cc(C(=O)N3CCO[C@H](c4ccccc4)C3)c3cc(Br)ccc32)C1 [Example 103]	4.67	< 4.00	–
C=CC(=O)N1CC(NC(=O)Cn2c(C)c(C(=O)N3CCN(c4ccc(C#N)cn4)CC3)c3cc(Br)ccc32)C1 [Example 83]	4.87	< 4.00	–
C=CC(=O)N1CC(NC(=O)Cn2cc(C(=O)N(C)Cc3ccccc3)c3cc(Br)ccc32)C1 [Example 155]	–	< 4.00	–
C=CC(=O)N1CC(NC(=O)Cn2c(C)c(C(=O)N3CCN(c4ccc(C)cn4)CC3)c3cc(Cl)cc(C)c32)C1 [Example 24]	–	< 4.00	–
C=CC(=O)N1CC(N2CCC(n3c(C)c(C(=O)N4CCc5c(cccc5OC)C4)c4cc(Br)ccc43)C2=O)C1 (stereo not shown) [Example 42]	5.42	< 4.48	–
C=CC(=O)N1CC(NC(=O)Cn2cc(C(=O)N3CCN(c4ccc(OC)cn4)CC3)c3cc(Br)ccc32)C1 [Example 93]	4.78	< 4.00	–
C=CC(=O)N1CC(NC(=O)Cn2cc(C(=O)NCCN(C)c3cccc(C)c3)c3cc(Br)ccc32)C1 [Example 173]	< 4.00	< 4.00	–
C=CC(=O)N1CC(NC(=O)Cn2cc(C(=O)N3CCc4cc(Br)ccc4C3)c3cc(Br)ccc32)C1 [Example 104]	4.66	–	pIC50 [2, 6]: 4.84
C=CC(=O)N1CC(NC(=O)Cn2cc(C(=O)N3CCc4cc(C(=O)OC)ccc4C3)c3cc(Br)ccc32)C1 [Example 124]	4.48	< 4.00	–
C=CC(=O)N1CC(NC(=O)Cn2cc(C(=O)OC)c3cc(Br)ccc32)C1 [Example 108]	4.63	< 4.00	–

SMILES	pIC50 [1, 4]	pIC50 [2, 5]	further results
C=CC(=O)N1CC(NC(=O)Cn2cc(C(=O)N3CCc4c(cccc4OC)C3)c3cc(Br)cc(C)c32)C1 [Example 82]	–	< 4.00	–
C=CC(=O)N1CC(NC(=O)Cn2cc(C(=O)N3CCc4c(OC)ccc(Br)c4C3)c3cc(Br)ccc32)C1 [Example 157]	4.27	4.37	–
C=CC(=O)N1CC(NC(=O)Cn2cc(C(=O)N3CCc4ccccc4C3)c3cc(Br)ccc32)C1 [Example 129]	–	< 4.00	–
C=CC(=O)N1CC(NC(=O)Cn2c(C)c(C(=O)C3CCc4ccccc4C3)c3cc(Br)ccc32)C1 (stereo not shown) [Example 65]	5.10	5.46	–
C=CC(=O)N1CC(NC(=O)Cn2cc(C(=O)N3CCN(c4ccc([N+](=O)[O-])cn4)CC3)c3cc(Br)ccc32)C1 [Example 99]	4.72	< 4.00	–
C=CC(=O)N1CC(NC(=O)Cn2cc(C(=O)NCCc3nc4ccccc4n3C)c3cc(Br)ccc32)C1 [Example 174]	< 4.00	< 4.00	–
C=CC(=O)N1CC(NC(=O)Cn2cc(C(=O)N3CCc4cc(F)ccc4C3)c3cc(Br)ccc32)C1 [Example 114]	–	< 4.00	–
C=CC(=O)N1CC(NC(=O)Cn2cc(C(=O)NCCOc3c(C)cccc3C)c3cc(Cl)cc(Cl)c32)C1 [Example 37]	5.48	< 4.00	–
C=CC(=O)N1CC(NC(=O)Cn2cc(C(=O)N3CCc4cc(Br)ccc4C3)c3cc(Br)ccc32)C1 [Example 106]	–	–	pIC50 ([1]; read-out: pERK IC50 (4 h, MiaPaCa-2), 4 h compound treatment): 4.65; pIC50 [2, 6]: 4.35
C=CC(=O)N1CC(NC(=O)Cn2cc(C(=O)NCc3ccccc3)c3cc(Br)ccc32)C1 [Example 163]	–	< 4.00	–
C=CC(=O)N1CC(NC(=O)Cn2cc(C(=O)N3CCN(c4ccc(CN(C)C)cn4)CC3)c3cc(Br)ccc32)C1 [Example 159]	4.24	< 4.00	–
C=CC(=O)N1CC(NC(=O)Cn2c(C)c(C(=O)N3CCN(c4ccc(C#N)cn4)C[C@@H]3C)c3cc(Br)ccc32)C1 [Example 81]	4.90	< 4.00	–
C=CC(=O)N1CC(NC(=O)Cn2c(C)c(C(=O)NCCC(=O)Nc3ccccc3CC)c3cc(Br)ccc32)C1 [Example 179]	< 4.00	< 4.00	–
C=CC(=O)N1CC(NC(=O)Cn2c3c(c4cc(Br)ccc42)CCN(C(=O)OC(C)(C)C)C3)C1 [Example 100]	–	–	pIC50 ([1]; Homo sapiens, MIA PaCa-2, read-out: pERK IC50 (4 h), 4 h compound treatment): 4.71; pIC50 ([2]; Homo sapiens, read-out: pERK IC50 (4 h), 4 h compound treatment): < 4.48
C=CC(=O)N1CC(NC(=O)Cn2cc(C(=O)N3CCN(c4ccccn4)CC3)c3cc(Br)ccc32)C1 [Example 60]	–	< 4.00	–
C=CC(=O)N1CC(NC(=O)Cn2cc(C(=O)N3CC4(CCN4c4ccccn4)C3)c3cc(Br)ccc32)C1 [Example 148]	4.30	< 4.00	–
C=CC(=O)N1CC(NC(=O)Cn2c(C3CC3)c(C(=O)N3CCOC(C)(c4ccccc4)C3)c3cc(Cl)cc(C)c32)C1 (stereo not shown) [Example 31]	5.57	< 4.00	–
C=CC(=O)N1CC(NC(=O)Cn2cc(C(=O)N3CCN(c4ccc(C)cn4)CC3)c3cc(Br)ccc32)C1 [Example 45]	5.40	< 4.00	–
C=CC(=O)N1CC(NC(=O)Cn2cc(C(=O)NCCc3c(OC)ccc4ccccc34)c3cc(Br)ccc32)C1 [Example 168]	< 4.00	< 4.00	–
C=CC(=O)N1CC(C)(NC(=O)Cn2c(C)c(C(=O)N3CCc4c(cccc4OC)C3)c3cc(Br)ccc32)C1 [Example 77]	4.94	4.99	–
C=CC(=O)N1CC(NC(=O)Cn2cc(C(=O)N3CCN(c4cc(C)ccn4)CC3)c3cc(Br)ccc32)C1 [Example 79]	4.93	< 4.00	–
C=CC(=O)N1CC(NC(=O)Cn2c(C3CC3)c(C(=O)N3CCc4c(cccc4OC)C3)c3cc(Cl)cc(C)c32)C1 [Example 1-7, 2-(5-Chloro-2-cyclopropyl-3-((5-methoxy-3,4-dihydro-2(1H)-isoquinolinyl)carbonyl)-7-methyl-1H-indol-1-yl)-N-(1-(2-propenoyl)-3-azetidinyl)acetamide]	–	4.22	–
C=CC(=O)N1CC(NC(=O)Cn2cc(C(=O)N3CCc4c(F)cccc4C3)c3cc(Br)ccc32)C1 [Example 118]	–	< 4.00	–
C=CC(=O)N1CC(NC(=O)Cn2c(C)c(C(=O)N3CCc4c(cccc4OC)C3)c3cc(Cl)cc(C)c32)C1 [Example 3-1, 2-(5-Chloro-3-((5-methoxy-3,4-dihydro-2(1H)-isoquinolinyl)carbonyl)-2,7-dimethyl-1H-indol-1-yl)-N-(1-(2-propenoyl)-3-azetidinyl)acetamide]	–	< 4.00	–
